Where a name gives a salt, the structure may show the parent alone.
Target: sigma receptors
Assay: Inhibition of ^3H-DTG binding to sigma receptors in rat brain in vitro
Conditions: Table I; 2 nM ^3H-DTG, rat brain without cerebellum, 25° C., 20 min

Compound | IC50
c1ccc2c(c1)CCCC21CCN(CCCCN2CCC3(CCCc4ccccc43)CC2)CC1 [Compound 1q, 1,4-Bis[3,4-dihydro-spiro[naphthalene-1(2 H),4'-piperidin]-1'-yl]butane] | 4 nM
c1ccc2c(c1)COC21CCN(CCCCN2CCC3(CC2)OCc2ccccc23)CC1 [Compound 1a, 1,4-Bis[spiro[isobenzofuran-1(3 H),4'-piperidin]-1'-yl]butane] | 0.64 nM
C1=CC2(CCN(CCCCN3CCC4(C=Cc5ccccc54)CC3)CC2)c2ccccc21 [Compound 4a, 1,4-Bis[spiro[ind-2-en-1,4'-piperidin]-1'-yl]butane] | 4 nM
Fc1ccc(C(CCN2CCC3(CC2)OCc2ccccc23)CCN2CCC3(CC2)OCc2ccccc23)cc1 [Compound 7b, 1,5-Bis[spiro[isobenzofuran-1(3 H),4'-piperidin]-1'-yl]-3-(4-fluorophenyl)pentane, difumarate] | 0.72 nM
c1ccc2c(c1)COC21CCN(CCN2CCC3(CC2)OCc2ccccc23)CC1 [Compound 2c, 1,2-Bis[spiro[isobenzofuran-1(3 H),4'-piperidin]-1'-yl]ethane] | 0.23 nM
O=C(CN1CCN(c2ccc(F)cc2)CC1)CN1CCN(c2ccc(F)cc2)CC1 [Compound 13a, 1,3-Bis[4-(4-fluorophenyl)piperazin-1-yl]-2-propanone] | 2500 nM
c1ccc2c(c1)COC21CCN(CCN(CCN2CCC3(CC2)OCc2ccccc23)C2CCCC2)CC1 [Compound 3a, N,N-Bis[2-spiro[isobenzofuran-1(3 H),4'-piperidin]-1'-ylethyl]-N-cyctopentylamine, trihydrochloride] | 1.5 nM
Cc1ccc2c(c1)COC21CCN(CCCCN2CCC3(CC2)OCc2cc(C)ccc23)CC1 [Compound 1l, 1,4-Bis[5-methyl-spiro[isobenzofuran-1(3 H),4'-piperidin]-1-yl]butane] | 23 nM
c1ccc2c(c1)COC21CCN(CCSCCN2CCC3(CC2)OCc2ccccc23)CC1 [Compound 8a, Bis[2-spiro[isobenzofuran-1(3 H),4'-piperidin]-1-ylethyl]sulphide, difumarate] | 0.78 nM
Fc1ccc(C2CCN(CCN(CCN3CCC(c4ccc(F)cc4)CC3)c3ccccc3)CC2)cc1 [Compound 7a, N,N-Bis[2-[4-(4-fluorophenyl)piperidin-1-yl]ethyl]aniline] | 3.6 nM
Fc1ccc(C2CCN(CCCCCN3CCC(c4ccc(F)cc4)CC3)CC2)cc1 [Compound 1d, 1,5-Bis[4-(4-fluorophenyl)piperidin-1-yl]pentane, 2.5 fumarate] | 1.4 nM
c1ccc2c(c1)CSC21CCN(CCCCN2CCC3(CC2)SCc2ccccc23)CC1 [Compound 1s, 1,4-Bis[spiro[isobenzothiophene-1(3 H),4'-piperidin]-1-yl]butane] | 0.04 nM
c1ccc2c(c1)COC21CCN(CCCCCN2CCC3(CC2)OCc2ccccc23)CC1 [Compound 1h, 1,5-Bis[spiro[isobenzofuran-1(3 H),4'-piperidin]-1-yl]pentane tetrafumarate] | 2 nM
O=S(=O)(CCN1CCC2(CC1)OCc1ccccc12)CCN1CCC2(CC1)OCc1ccccc12 [Compound 9a, Bis[2-spiro[isobenzofuran-1(3 H),4'-piperidin]-1'-ylethyl]sulphone] | 1800 nM
OC(CN1CCC(c2ccc(F)cc2)CC1)CN1CCC(c2ccc(F)cc2)CC1 [Compound 12a, 1,3-Bis[4-(4-fluorophenyl)piperidin-1-yl]-2-propanol] | 2.4 nM
c1ccc2c(c1)COC21CCN(CCOCCN2CCC3(CC2)OCc2ccccc23)CC1 [Compound 10a, Bis[2-spiro[isobenzofuran-1(3 H),4'-piperidin]-1'-ylethyl]ether,dihydrochloride] | 2.5 nM
c1ccc2c(c1)CCC21CCN(CCCCN2CCC3(CCc4ccccc43)CC2)CC1 [Compound 5a, 1,4-Bis[spiro[indan-1,4'-piperidin]-1'-yl]butane] | 3.1 nM
FC(F)(F)c1ccc2c(c1)C1(CCN(CCCCN3CCC4(CC3)OCc3ccc(C(F)(F)F)cc34)CC1)OC2 [Compound 1j, 1,4-Bis[6-(trifluoromethyl)-spiro[isobenzofuran-1(3 H),4'-piperidin]-1-yl]butane, dihydrochloride] | 19 nM
c1ccc2c(c1)COC21CCN(CCCN2CCC3(CC2)OCc2ccccc23)CC1 [Compound 2a, 1,3-Bis[spiro[isobenzofuran-1(3 H),4'-piperidin]-1'-yl]propane difumarate] | 0.76 nM

Compound | IC50
c1ccc2c(c1)OCCC21CCN(CCCCN2CCC3(CCOc4ccccc43)CC2)CC1 [Compound 1u, 1,4-Bis[spiro[1-benzopyran-4,4'-piperidin]-1'-yl]butane] | 0.17 nM
c1ccc2c(c1)CCC1(CCN(CCCCN3CCC4(CCc5ccccc5O4)CC3)CC1)O2 [Compound 1r, 1,4-Bis[3,4-dihydro-spiro[1-benzopyran-2,4'-piperidin]-1-yl]butane, difumarate] | 130 nM
C1=CC2(CCN(CCCCN3CCC4(C=Cc5ccccc5O4)CC3)CC2)Oc2ccccc21 [Compound 1p, 1,4-Bis[spiro[1-benzopyran-2,4'-piperidin]-1-yl]butane, difumarate] | 32 nM
Fc1ccc2c(c1)C1(CCN(CCCCN3CCC4(CC3)OCc3ccc(F)cc34)CC1)OC2 [Compound 1g, 1,4-Bis[6-fluoro-spiro[isobenzofuran-1(3 H),4'-piperidin]-1'-yl]butane] | 0.44 nM
c1ccc2c(c1)COC1(CCN(CCCCN3CCC4(CC3)Cc3ccccc3CO4)CC1)C2 [Compound 1c, 1,4-Bis[1,4-dihydro-spiro[2-benzopyran-3,4'-piperidin]-1'-yl]butane] | 16 nM
Fc1ccc(C2=CCN(CCCCN3CC=C(c4ccc(F)cc4)CC3)CC2)cc1 [Compound 6a, 1,4-Bis[4-(4-fluorophenyl)-1,2,3,6-tetrahydropyridin-1-yl]butane] | 0.31 nM
c1ccc2c(c1)COCC21CCN(CCCCN2CCC3(CC2)COCc2ccccc23)CC1 [Compound 1k, 1,4-Bis[1,3-dihydro-spiro[2-benzopyran-4,4'-piperidin]-1'-yl]butane] | 8.7 nM
c1ccc2c(c1)CCOC21CCN(CCCCN2CCC3(CC2)OCCc2ccccc23)CC1 [Compound 1t, 1,4-Bis[spiro[1-benzopyran-2,4'-piperidin]-1-yl]butane, 1.25 fumarate] | 0.38 nM
c1ccc2c(c1)OC1(CCN(CCCCN3CCC4(CC3)Oc3ccccc3O4)CC1)O2 [Compound 1i, 1,4-Bis[spiro[1,3-benzodioxol-2,4'-piperidin]-1'-yl]butane] | 45 nM
Fc1cccc2c1C1(CCN(CCCCN3CCC4(CC3)OCc3cccc(F)c34)CC1)OC2 [Compound 1m, 1,4-Bis[7-fluoro-spiro[isobenzofuran-1(3 H),4'-piperidin]-1'-yl]butane] | 5.1 nM
c1ccc2c(c1)COC21CC2CCC(C1)N2CCCCN1C2CCC1CC1(C2)OCc2ccccc21 (stereo not drawn) [Compound 1n, 1,4-Bis[spiro[isobenzofuran-1(3 H),3'-8'-azabicyclo[3',2',1']octan]-8'-yl]butane] | 99 nM
Fc1ccc(C2CCN(CCCCN3CCC(c4ccc(F)cc4)CC3)CC2)cc1 [Compound 1b, 1,4-Bis[4-(4-fluorophenyl)piperidin-1-yl]butane] | 0.41 nM
Fc1ccc(C2=CC3CCC(C2)N3CCCCN2C3C=C(c4ccc(F)cc4)CC2CC3)cc1 [Compound 1o, 1,4-Bis[3-(4-fluorophenyl)-8-azabicyclo[3,2,1]oct-2-en-8-yl]butane] | 74 nM
Fc1ccc(C2CCN(CCN3CCC(c4ccc(F)cc4)CC3)CC2)cc1 [Compound 2d, 1,2-Bis[4-(4-fluorophenyl)piperidin-1-yl]ethane] | 0.5 nM
Cc1ccc2c(c1)COC21CCN(CCCCCCN2CCC3(CC2)OCc2cc(C)ccc23)CC1 [Compound 11a, 1,6-Bis[5-methyl-spiro[isebenzofuran-1(3 H),4'-piperidin]-1-yl]hexane] | 9.7 nM
CN(CCN1CCC2(CC1)OCc1ccccc12)CCN1CCC2(CC1)OCc1ccccc12 [Compound 3b, N,N-Bis[2-spiro[isobenzofuran-1(3 H),4'-piperidin]-1'-ylethyl]-N-methylamine, trihydrochloride] | 4.9 nM
Fc1ccc(C2CCN(CCCN3CCC(c4ccc(F)cc4)CC3)CC2)cc1 [Compound 2b, 1,3-Bis[4-(4-fluorophenyl)piperidin-1-yl]propane] | 0.17 nM
c1ccc2c(c1)COC21CCN(CCCCCCN2CCC3(CC2)OCc2ccccc23)CC1 [Compound 1f, 1,6-Bis[spiro[isobenzofuran-1(3 H),4'-piperidin]-1'-yl]hexane] | 0.71 nM
Fc1ccc(N2CCN(CCCCN3CCN(c4ccc(F)cc4)CC3)CC2)cc1 [Compound 1e, 1,4-Bis[4-(4-fluorophenyl)piperazin-1-yl]butane] | 0.89 nM

Tested on: not given
Assay: not given
Conditions: clinical; Snyder and Largent 1989; cited from earlier work

Compound | effects in the treatment of psychosis
C[C@@H]1CN(CCCn2c3ccccc3c3ccccc32)C[C@H](C)N1 [Rimcazole, reference compound] | clinically shows effects in the treatment of psychosis
